The assay concerns the target Acetylcholinesterase (Electrophorus electricus, UniProt O42275).

Each structure is given as a SMILES string.

Chain of Acetylcholinesterase (O42275 whole entry): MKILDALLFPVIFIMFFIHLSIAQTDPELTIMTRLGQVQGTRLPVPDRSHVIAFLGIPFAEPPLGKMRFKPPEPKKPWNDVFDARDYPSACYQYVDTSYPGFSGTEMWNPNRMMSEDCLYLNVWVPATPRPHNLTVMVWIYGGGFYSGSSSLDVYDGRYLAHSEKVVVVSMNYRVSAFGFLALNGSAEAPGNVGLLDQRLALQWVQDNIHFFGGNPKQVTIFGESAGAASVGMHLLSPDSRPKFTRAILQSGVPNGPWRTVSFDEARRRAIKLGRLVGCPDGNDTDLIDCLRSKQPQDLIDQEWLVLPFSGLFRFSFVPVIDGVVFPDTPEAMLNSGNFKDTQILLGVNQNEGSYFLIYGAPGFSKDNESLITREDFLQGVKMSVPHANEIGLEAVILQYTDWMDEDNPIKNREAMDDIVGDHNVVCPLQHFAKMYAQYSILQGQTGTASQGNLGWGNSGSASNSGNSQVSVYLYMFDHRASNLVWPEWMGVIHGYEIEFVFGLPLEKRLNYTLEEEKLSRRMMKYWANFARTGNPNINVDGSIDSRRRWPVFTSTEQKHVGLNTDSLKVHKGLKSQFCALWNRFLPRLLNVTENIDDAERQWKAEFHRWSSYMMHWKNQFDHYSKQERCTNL
Description: Inhibition of Electric eel AChE assessed as amount of thiocholine released using acetylthiocholine iodide as substrate after 6 mins by Ellman's method

Broadly, the IC50 is the midpoint of a concentration-inhibition curve. The low end stands for inhibition by little substance, the high end for a need for much substance. As to `CN(C)CCc1c(C(c2c[nH]c3ccccc23)C(O)CO)[nH]c2ccc(O)cc12` (stereo not given), the IC50 is 11.7 µM. This counts as double-digit micromolar.

In the case of `CNCCc1c[nH]c2ccc(OC)cc12`, the IC50 came to 12.5 µM.

Take `CN(C)CCc1c[nH]c2ccc(O)cc12` [BUFOTENINE]: the IC50 was 11.4 µM.

In turn, `NCCc1c(C(c2c[nH]c3ccccc23)C(O)CO)[nH]c2ccc(O)cc12` (stereo not given) came in with an IC50 of 12.7 µM.

Regarding `COc1ccc2[nH]cc(CCN(C)C)c2c1` [MEBUFOTENIN], the midpoint of inhibition, the IC50, lay at 14 µM.
